Data as given in patent publication US10399968B2, “Hydroxyalkyl thiadiazole derivatives” (Daiichi Sankyo Company, Limited, priority 2015, dated 2019).
In brackets after ≈: the same amount, converted by molar mass. Like-named read-outs stand apart in the source and are kept apart here.

Experiments:
[1] = system: Clostridium difficile ATCC 43255; test: Susceptibility of Clostridium difficile, agar dilution MIC; type: cell-based; conditions: Clostridioides difficile, ATCC43255, anaerobic
Outline: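 Agar dilution per CLSI M11-A8 on supplemented Brucella agar containing compound dilutions. Inoculum from 0.5 McFarland suspension, 1-2 μL spots; anaerobic incubation at 36° C for 42 to 48 hours. MIC read by eye as the concentration giving marked growth reduction versus compound-free anaerobic control plates.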

[2] = Oral bioavailability (BA) in rats; type: in vivo; conditions: male, SD, blood; Rat, 2 mg/kg oral vs jugular vein
Description: To SD male rats (7 week-old) fasted overnight, a solution of the test compound Captisol® was administered into the jugular vein (3 animals) and a solution of Lutrol® F68 was administered orally (3 animals). The dose of the test compounds was 2 mg/kg body weight of the rat for both administration routes. The amount of Captisol® used was 0.36 mg/kg body weight of the rat. The amount of Lutrol® F68 used was 0.02 mg/kg body weight of the rat. The BA value was calculated by the formula below using the integration value (AUCiv(0-∞)) of the blood concentration extrapolated from time 0 to infinity after administration of both test compounds. The greater a BA value of the compound shown, the higher the oral bioavailability is.

[3] = Solubility in water (JP1 / JP2 fluids); type: physicochemical; conditions: thermodynamic from solid
Outline: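 DMSO stock (10 mmol/L) dried down, residue shaken 30 min in JP1 or JP2 fluid after 1 min sonication, then held 1 h dark at room temperature. Filtrate diluted and quantified by UPLC against 100 and 5 μmol/L standards.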

[4] = system: N. gonorrhoeae clinical isolates; test: Susceptibility of N. gonorrhoeae, agar dilution MIC; type: cell-based
Description: The antibacterial activity of the compounds of the present invention against N. gonorrhoeae clinical isolates was tested by the agar dilution method [Clinical and Laboratory Standards Institute, 2016]. The test strains were spread on chocolate agar plates and grown for 20-24 h at 36° C. in 5% carbon dioxide. The test compound dilutions were prepared with broth and agar MIC plates were prepared using GC agar base supplemented with haemoglobin and 1% IsoVitaleX plates. As growth control plates not containing the test compound were also prepared. Colonies grown on plates were suspended with broth to adjust the turbidity to 0.5 McFarland using a densitometer. Suspension (1-2 μL) of the test strains was inoculated onto each agar surface by using a bacterial suspension inoculation apparatus (multipoint inoculator). After aerobic incubation for 20-24 h at 36° C. in 5% carbon dioxide, absence and presence of growth of each strain on growth control plates and test compounds plate were examined with unaided eye. The MIC was determined at which a marked reduction occurs in the appearance of growth on the test plate as compared to that of growth on the aerobic control plates.

P. acnes IHMA 103740 = test: Susceptibility of P. acnes, agar dilution MIC; type: cell-based; conditions: Cutibacterium acnes, IHMA103740, anaerobic
Description: (§1) The antibacterial activity of the compounds of the present invention against P. acnes clinical isolates was tested by the agar dilution method. The assay was carried out according to the CLSI guidelines document (Clinical and Laboratory Standards Institute, 2012 & 2016). The test strains were spread on supplemented Brucella agar (SBA) plates and grown for 42 to 48 hours at 36° C. under anaerobic condition. The test compound dilutions were prepared with Brucella broth and SBA plates containing dilution of test compound were prepared. As an anaerobic growth control and to check the aerobic contamination, plates not containing the test compound were also prepared. Colonies grown on plates were suspended with Brucella broth to adjust the turbidity to 0.5 McFarland using a densitometer. Suspension (1-2 μL) of the test strains was inoculated onto each agar surface by using a bacterial suspension inoculation apparatus (multipoint inoculator). After anaerobic incubation for 42 to 48 hours at 36° C., absence and presence of growth of each strain on growth control plates and test compounds plate were examined with unaided eye. The MIC was determined at which a marked reduction occurs in the appearance of growth on the test plate as compared to that of growth on the anaerobic control plates.

P. acnes ATCC 6921 = test: Susceptibility of P. acnes, agar dilution MIC; type: cell-based; conditions: Cutibacterium acnes, ATCC6921, anaerobic
Description: as §1

P. acnes IHMA 775486 = test: Susceptibility of P. acnes, agar dilution MIC; type: cell-based; conditions: Cutibacterium acnes, IHMA775486, anaerobic
Description: as §1

P. acnes ATCC 6523 = test: Susceptibility of P. acnes, agar dilution MIC; type: cell-based; conditions: Cutibacterium acnes, ATCC6523, anaerobic
Description: as §1

[5] = Japanese Pharmacopeia First Fluid (JP1), pH 1.2, simulated gastric fluid, read-out: Solubility JP1
[6] = Japanese Pharmacopeia Second Fluid (JP2), pH 6.8, aqueous buffer, read-out: Solubility JP2

| Structure (SMILES) | MIC [1] | bioavailability [2] | solubility at 30 min [3, 5] | solubility at 30 min [3, 6] | MIC [4] | MIC (P. acnes IHMA 103740) | MIC (P. acnes ATCC 6921) | MIC (P. acnes IHMA 775486) | MIC (P. acnes ATCC 6523) |
| --- | --- | --- | --- | --- | --- | --- | --- | --- | --- |
| CCc1[nH]c(C(=O)N[C@@H]2CCN(c3nnc([C@H](C)O)s3)C[C@@H]2OC)nc1Cl (single isomer, unassigned) [Compound No. 5] | 0.125 µg/mL (≈ 0.301 µM) | 60% | 680 µg/mL (≈ 1640 µM) | 359 µg/mL (≈ 865 µM) | – | – | – | – | – |
| CCc1[nH]c(C(=O)N[C@@H]2CCN(c3nnc(C(C)(C)O)s3)C[C@@H]2OC)nc1Cl [Compound No. 2, 4-Chloro-5-ethyl-N-{(3S,4R)-1-[5-(2-hydroxypropan-2-yl)-1,3,4-thiadiazol-2-yl]-3-methoxypiperidin-4-yl}-1H-imidazole-2-carboxamide] | 0.06 µg/mL (≈ 0.14 µM) | 98% | 706 µg/mL (≈ 1650 µM) | 256 µg/mL (≈ 597 µM) | 0.25 µg/mL (≈ 0.583 µM) | 0.125 µg/mL (≈ 0.291 µM) | 0.125 µg/mL (≈ 0.291 µM) | 0.125 µg/mL (≈ 0.291 µM) | 0.125 µg/mL (≈ 0.291 µM) |
